Measurements from paper PMC4742234, “Screening of Drug Metabolizing Enzymes for the Ginsenoside Compound K In Vitro: An Efficient Anti-Cancer Substance Originating from Panax Ginseng” (PLoS ONE, 2016).
Where “and” joins values, the source holds several entries; their conditions need not be identical. Identical values can stand only once. Entries after “also recorded” stand apart in the source; their conditions may differ.

Legend:
Type in all cases: in vitro ADME
CYP2E1 = target: T1, CYP2E1 (Homo sapiens, UniProt P05181); assay: Inhibition of CYP2E1 (chlorzoxazone 6-hydroxylation) by CK in HLMs
T1 construct: tissue Cypex Ltd. (U.K.); host or cells: pooled human liver microsomes
Description: The method was conducted according to our previous study with some modifications. The CYP isoform-specific probe reactions used were phenacetin O-deethylation (for CYP1A2), coumarin 7-hydroxylation (for CYP2A6), tolbutamide 4-hydroxylation (for CYP2C9), metoprolol α-hydroxylation (for CYP2D6), chlorzoxazone 6-hydroxylation (for CYP2E1),S-Mephenytoin 4-hydroxylation (for CYP2C19), and midazolam 1-hydroxylation (for CYP3A4). The kinetic study of CK was conducted with HLMs. A 0.2 mL incubation mixture that consisted of CK (as a substrate), the HLMs (0.5 mg/mL) or CYP isoforms (10 pmol), and 0.1 M sodium phosphate buffer (pH 7.4) was pre-warmed for 5 min at 37°C. The reaction was initiated by the addition of 1 mg/mL triphosphopyridine nucleotide (NADPH). All the reagents were dissolved in methanol, and the final solvent concentration in all incubations (including the controls) was 1%. The final incubations were performed in a shaking water bath (37°C) for 30 min. The reactions were stopped by adding 0.2 mL ice-cold acetonitrile, which contains irbesartan (114.9 ng/mL) as the internal standard. The samples were vortexed for 5 min. After centrifugation (12000×g for 10 min), the supernatants were transferred, and aliquots of 20 μL were injected into the HPLC-MS/MS system for analysis.
CK (10–100 μM) and a single CYP isoform-specific substrate (with a concentration similar to its corresponding Kmvalue) were used to determine the inhibitory effect of CK on specific CYP isoforms as described in detail previously. Substrates including phenacetin, coumarin, tolbutamide, metoprolol, chlorzoxazone, S-Mephenytoin, and midazolam were used at concentrations of 10, 5, 100, 7.5, 40, 100, and 5 μM, respectively. All incubation conditions were the same as mentioned above. The inhibitory effects on the CYP isoforms were investigated individually by incubating the HLMs in the absence or presence of CK. […]

CYP3A4 = CYP3A4 (Homo sapiens, UniProt P08684); assay: Kinetic analysis of CK metabolism by recombinant CYP3A4; parameters: purchased Cypex Ltd. (U.K.); conditions: recombinant CYP3A4 10 pmol, CK 10–100 μM
Description: (§1) The method was conducted according to our previous study with some modifications. The CYP isoform-specific probe reactions used were phenacetin O-deethylation (for CYP1A2), coumarin 7-hydroxylation (for CYP2A6), tolbutamide 4-hydroxylation (for CYP2C9), metoprolol α-hydroxylation (for CYP2D6), chlorzoxazone 6-hydroxylation (for CYP2E1),S-Mephenytoin 4-hydroxylation (for CYP2C19), and midazolam 1-hydroxylation (for CYP3A4). The kinetic study of CK was conducted with HLMs. A 0.2 mL incubation mixture that consisted of CK (as a substrate), the HLMs (0.5 mg/mL) or CYP isoforms (10 pmol), and 0.1 M sodium phosphate buffer (pH 7.4) was pre-warmed for 5 min at 37°C. The reaction was initiated by the addition of 1 mg/mL triphosphopyridine nucleotide (NADPH). […]
(§2) The kinetic parameters for the metabolism of CK were determined by incubating increasing concentrations of CK (10–100 μM) at 37°C with the HLMs and NADPH under the incubation conditions as described in detail previously. The equation of CK reaction velocity (V) in the HLMs or CYP isoforms is expressed as V = (C0–Ct)/T/Cp, where C0and Ct are the initial and final concentrations of CK in the incubation solution, respectively, T is the incubation time (min), and Cp is the protein concentration (mg/mL or nmol). All values were expressed as the mean±standard deviation (SD). […]

CYP2C9 = CYP2C9 (Homo sapiens, UniProt P11712); assay: Kinetic analysis of CK metabolism by recombinant CYP2C9; parameters: purchased Cypex Ltd. (U.K.); conditions: recombinant CYP2C9 10 pmol, CK 10–100 μM
Description: as §1, §2

T1 sequence (P05181 whole entry): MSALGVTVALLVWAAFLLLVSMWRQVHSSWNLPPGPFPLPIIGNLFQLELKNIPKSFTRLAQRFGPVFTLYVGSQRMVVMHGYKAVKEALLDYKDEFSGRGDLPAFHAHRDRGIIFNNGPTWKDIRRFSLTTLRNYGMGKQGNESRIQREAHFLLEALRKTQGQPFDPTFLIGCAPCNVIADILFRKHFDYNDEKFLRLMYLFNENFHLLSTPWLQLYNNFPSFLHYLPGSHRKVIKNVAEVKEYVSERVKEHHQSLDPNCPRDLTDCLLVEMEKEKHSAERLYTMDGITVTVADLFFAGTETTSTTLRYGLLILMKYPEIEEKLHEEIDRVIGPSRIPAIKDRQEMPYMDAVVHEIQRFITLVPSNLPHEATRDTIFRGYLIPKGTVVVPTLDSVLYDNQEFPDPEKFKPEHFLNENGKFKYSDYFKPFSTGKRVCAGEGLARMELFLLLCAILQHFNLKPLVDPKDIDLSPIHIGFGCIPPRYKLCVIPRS
CYP3A4, sequence (P08684 whole entry, canonical isoform): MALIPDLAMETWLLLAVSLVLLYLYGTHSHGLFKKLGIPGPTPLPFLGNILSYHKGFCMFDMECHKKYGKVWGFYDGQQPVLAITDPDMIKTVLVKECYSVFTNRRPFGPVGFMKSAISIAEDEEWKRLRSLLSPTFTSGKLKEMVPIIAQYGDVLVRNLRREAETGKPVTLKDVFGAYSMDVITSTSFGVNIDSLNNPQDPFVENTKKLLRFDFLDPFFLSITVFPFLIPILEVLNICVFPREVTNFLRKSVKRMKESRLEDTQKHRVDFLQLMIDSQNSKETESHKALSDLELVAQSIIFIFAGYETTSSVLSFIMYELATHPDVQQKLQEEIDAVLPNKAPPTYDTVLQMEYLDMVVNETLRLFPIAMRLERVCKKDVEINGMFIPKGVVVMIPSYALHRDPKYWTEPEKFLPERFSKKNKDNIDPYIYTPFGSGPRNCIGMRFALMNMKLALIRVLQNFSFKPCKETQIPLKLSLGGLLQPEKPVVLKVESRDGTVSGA
CYP2C9, sequence (P11712 whole entry): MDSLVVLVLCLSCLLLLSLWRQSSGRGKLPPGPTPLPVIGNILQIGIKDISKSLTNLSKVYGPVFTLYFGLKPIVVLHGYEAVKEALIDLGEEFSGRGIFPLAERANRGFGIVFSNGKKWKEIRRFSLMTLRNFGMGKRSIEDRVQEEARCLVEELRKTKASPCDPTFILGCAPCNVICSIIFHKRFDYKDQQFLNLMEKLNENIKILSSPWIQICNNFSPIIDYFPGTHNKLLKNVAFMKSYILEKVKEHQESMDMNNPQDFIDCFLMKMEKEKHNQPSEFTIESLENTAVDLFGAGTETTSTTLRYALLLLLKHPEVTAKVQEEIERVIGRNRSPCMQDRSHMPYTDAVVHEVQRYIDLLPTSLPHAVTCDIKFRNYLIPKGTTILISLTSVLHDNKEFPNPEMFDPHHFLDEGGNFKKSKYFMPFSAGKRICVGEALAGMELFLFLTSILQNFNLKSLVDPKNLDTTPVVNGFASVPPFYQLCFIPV

## CC(C)=CCC[C@](C)(OC1O[C@H](CO)[C@@H](O)[C@H](O)[C@H]1O)[C@H]1CC[C@]2(C)[C@@H]1[C@H](O)C[C@@H]1[C@@]3(C)CC[C@H](O)C(C)(C)[C@@H]3CC[C@]12C (stereo partly drawn) [CK, 20-O-β-(D-glucopyranosyl)-20(S)-protopanaxadiol]
CYP2E1; HLMs, CK 10–100 μM
  inhibitory effect on the activity of CYP2E1: minimal; also recorded: negligible
CYP2E1; HLMs, chlorzoxazone 40 μM, CK 10–100 μM
  IC50: > 100 µM
CYP2E1; classified by IC50 according to Kong et al
  inhibitor potency class for CYP2E1: weak (weak, if IC50≥100 μg/mL or ≥50 μM)
CYP3A4
  Vmax of CK metabolism: 0.68±0.04 nmol/nmol P450/min and 0.6756 nmol/nmol P450/min
CYP2C9
  Vmax of CK metabolism: 0.45±0.05 nmol/nmol P450/min and 0.4537 nmol/nmol P450/min
